Data set [1] relates to NCI-H292. Description: Cell growth inhibition assay (resazurin, 48 h). It is filed as cell-based, human. To be noted: NCI-H292, 48 h. On the technique in general: The colour change of resazurin is a common sign of viable cells or microbes.
The test system of data set [2] is HT-29. Description: Cell growth inhibition assay (resazurin, 48 h). It is filed as cell-based, human. Particulars: HT-29, 48 h. The method, then:
(§1) RPMI 8226 (CCL-155), HT-29 (HTB-38), and B16-F10 (CRL-6475) cells were purchased from ATCC. RPMI 8226 cells were maintained in RPMI 1640 media supplemented with 10% (v/v) FBS, 2 mM L-glutamine, 1 mM sodium pyruvate and Penicillin/Streptomycin at 100 IU/ml and 100 μg/ml, respectively. HT-29 cells were maintained in McCoys 5A supplemented with 10% (v/v) FBS, 2 mM L-glutamine, 1 mM sodium pyruvate, 1% (v/v) non-essential amino acids, 10 mM HEPES and Penicillin/Streptomycin at 100 IU/ml and 100 μg/ml, respectively. B16-F10 cells were maintained in DMEM supplemented with 10% (v/v) FBS, 2 mM L-glutamine, 10 mM HEPES and Penicillin/Streptomycin at 100 IU/ml and 100 μg/ml, respectively.
(§2) RPMI 8226 cells were seeded at 2×10^4 cells/well in 90 μl RPMI media containing 10% (v/v) FBS or 1% (v/v) FBS into 96 well black-walled, clear-bottom tissue culture plates. […] Formulae II-16, II-17 and Formula II-18 were serially diluted in media containing 1% or 10% FBS and added in triplicate to the test wells. […] The final concentration of Formula II-18 ranged from 2 μM to 630 pM.

In data set [3] the test system is PARP. Description: PARP cleavage in Jurkat cells (western blot). Particulars: 100 nM Salinosporamide A or 350 nM Staurosporine. Type of data set: cell-based, human.
Data set [4] deals with RPMI 8226. In words: Cell growth inhibition assay (resazurin, 48 h). Particulars: for % cytotoxicity: RPMI 8226. The method, then: as §1, §2

Structures are written as SMILES.

The EC50 is the concentration needed to bring the measured effect to its halfway point.

As to `C[C@@]12OC(=O)[C@]1([C@@H](O)[C@@H]1C=CCCC1)NC(=O)[C@@H]2CCCl` [Formula II-16, Salinosporamide A], the EC50 in data set [1] (Homo sapiens) is 97 nM; in data set [1], 66 ± 29 nM; in data set [2], 40 ± 26 nM; in data set [2] (Homo sapiens), 47 nM; in data set [4] (Homo sapiens, RPMI-8226, 48 h, RPMI 8226, 48 h), 8.6 ± 1.9 nM. Besides, the “cleavage of PARP” value in data set [3] is recorded as “cleavage of PARP within the Jurkat cells in a time-dependent fashion”. In addition, the “% cytotoxicity” value is 94 ± 0% in data set [4] (listed as II-16) and 94 ± 1% in data set [4] (listed as Salinosporamide A).

The values above are taken from US7579371B2, “Methods of using [3.2.0] heterocyclic compounds and analogs thereof” (Nereus Pharmaceuticals, Inc., priority 2004, dated 2009).
